From patent publication US20170112564A1, “METHODS AND MATERIALS FOR TREATING HYPERTENSION” (Mayo Foundation for Medical Education and Research, priority 2014, published 2017)

Columns and labels:
[1] = test system: young and older postmenopausal women; test: Ganglionic (autonomic) blockade with trimethaphan camsylate in young and older postmenopausal women: blood pressure and muscle sympathetic nerve activity; assay type: in vivo, humans; details: during trimethaphan
Source text: FIG. 1 is a graph plotting muscle sympathetic nerve activity (MSNA; bursts/min) as measured using a microneurography technique for 24 humans. The dose indicates the amount of trimethaphan in mg/min it took to abolish the sympathetic nerve bursts. The MSNA bursts per minute is the amount of sympathetic bursts that occurred at baseline, prior to drug infusion.
FIG. 2 is a graph plotting the same dose of trimethaphan in mg/min compared to the difference in mean arterial pressure (MAP) between baseline and at the final trimethaphan dose.
The effect of ganglionic blockade on arterial blood pressure and how this relates to baseline muscle sympathetic nerve activity in 12 young (25±1 years) and 12 older postmenopausal (61±2 years) women were examined. The women were studied before and during autonomic blockade using trimethaphan camsylate. At baseline, muscle sympathetic nerve activity burst frequency and burst incidence were higher in the older women (33±3 versus 15±1 bursts/min; 57±5 versus 25±2 bursts/100 heartbeats, respectively; P<0.05). Muscle sympathetic nerve activity bursts were abolished by trimethaphan within minutes (e.g., between about 6 and about 35 minutes). […] Baseline muscle sympathetic nerve activity was associated with the decrease in mean arterial pressure during trimethaphan (r=−0.74; P<0.05). See, also, Barnes et al., Hypertension, 63:303-308 (2014).

healthy humans = test: Brief escalating doses of trimethaphan camsylate with beat-to-beat arterial pressure to distinguish high and low sympathetic activity individuals; assay type: in vivo; details: 24 healthy humans, infusion 1-4 mg/minute for 5-10 minutes
Procedure: Both normal human subjects and patients with diseases such as resistant hypertension can have very wide ranges of baseline sympathetic activity. The following was developed to distinguish those individuals with high levels of baseline sympathetic activity from individuals with lower levels of baseline sympathetic activity. Trimethaphan camsylate, a ganglionic blocking drug, was administered (e.g., by infusion) at 1-4 mg/minute for 5-10 minutes to 24 healthy humans, while non-invasive beat-to-beat measurements of arterial pressure were made. […] The relationship between the fall in blood pressure and baseline sympathetic activity in a group of about 20-30 healthy women ranging in age from their early 20's to their later 60's was determined (FIGS. 1 and 2). Similar data were obtained using healthy men. […] Those individuals with an elevated level of sympathetic activity responsive to a ganglionic blocking drug (e.g., a reduction in the number of bursts per minute that is greater than 10 burst per minute) can be optimal candidates for sympatholytic therapy.

[2] = older postmenopausal women (61±2 years, n=12)

Q: Which results are given for `O=C1N(Cc2ccccc2)C2C[S+]3CCCC3C2N1Cc1ccccc1` (stereo not drawn) [trimethaphan, trimethaphan camsylate]?
A: Muscle sympathetic nerve activity bursts ([1]; 12 young and 12 older postmenopausal women): abolished; decrease in mean arterial pressure [1, 2]: −29±2 mm Hg; decrease in total peripheral resistance [1, 2]: −10±1 mm Hg/L per minute; decrease in mean arterial pressure ([1]; young women (25±1 years, n=12)): −9±2 mm Hg; decrease in total peripheral resistance ([1]; young women (25±1 years, n=12)): −5±1 mm Hg/L per minute; fall in blood pressure (healthy humans): directly related to baseline sympathetic activity
